Where a name gives a salt, the structure may show the parent alone. Read-outs that look alike come from different tables or passages of the source.
Experiments:
human APJ = molecular target: T1, human APJ (Homo sapiens, UniProt P35414); assay: Calcium mobilization assay for APJ; assay type: cell-based
T1 sequence (P35414 1-380): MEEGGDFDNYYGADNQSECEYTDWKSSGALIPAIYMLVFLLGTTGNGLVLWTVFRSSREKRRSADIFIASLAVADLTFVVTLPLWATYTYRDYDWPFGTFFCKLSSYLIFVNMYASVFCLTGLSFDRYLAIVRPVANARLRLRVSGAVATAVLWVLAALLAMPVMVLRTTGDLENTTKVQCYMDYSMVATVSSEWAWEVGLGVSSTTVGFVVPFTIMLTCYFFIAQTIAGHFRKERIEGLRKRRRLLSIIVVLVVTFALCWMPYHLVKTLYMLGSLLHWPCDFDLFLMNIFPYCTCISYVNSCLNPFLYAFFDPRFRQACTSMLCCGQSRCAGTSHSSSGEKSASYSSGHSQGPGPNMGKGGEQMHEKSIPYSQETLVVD

human apelin receptor = molecular target: T2, human apelin receptor (Homo sapiens, UniProt P35414); assay: Radioligand displacement, [125I]-apelin-13, CHO-K1 cell membrane homogenates; assay type: binding
T2 sequence (P35414 1-380): T1 sequence (P35414 1-380)

NTR2 [1] = molecular target: T3, NTR2 (Rattus norvegicus, UniProt Q63384); conditions: read-out: NTR2 EC50 (off-target); cited from earlier work
T3 sequence (Q63384 1-416): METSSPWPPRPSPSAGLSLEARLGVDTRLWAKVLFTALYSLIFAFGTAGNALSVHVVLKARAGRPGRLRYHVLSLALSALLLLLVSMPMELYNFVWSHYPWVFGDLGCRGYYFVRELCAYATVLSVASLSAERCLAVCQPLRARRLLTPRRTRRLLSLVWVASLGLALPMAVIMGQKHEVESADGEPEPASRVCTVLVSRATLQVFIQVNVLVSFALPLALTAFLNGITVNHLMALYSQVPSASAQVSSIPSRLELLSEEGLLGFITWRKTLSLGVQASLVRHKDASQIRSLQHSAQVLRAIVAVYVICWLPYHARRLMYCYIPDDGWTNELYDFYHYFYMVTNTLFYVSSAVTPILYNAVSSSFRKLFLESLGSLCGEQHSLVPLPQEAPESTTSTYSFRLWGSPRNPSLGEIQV

NTR2 receptor = conditions: read-out: NTR2 Ki (off-target); cited from earlier work
NTR2 [2] = molecular target: T3, NTR2; assay: Calcium mobilization assay for NTR2; assay type: cell-based
NTR1 = NTR1 (Rattus norvegicus, UniProt P20789); assay: Calcium mobilization assay for NTR1; assay type: cell-based
NTR1, sequence (P20789 whole entry): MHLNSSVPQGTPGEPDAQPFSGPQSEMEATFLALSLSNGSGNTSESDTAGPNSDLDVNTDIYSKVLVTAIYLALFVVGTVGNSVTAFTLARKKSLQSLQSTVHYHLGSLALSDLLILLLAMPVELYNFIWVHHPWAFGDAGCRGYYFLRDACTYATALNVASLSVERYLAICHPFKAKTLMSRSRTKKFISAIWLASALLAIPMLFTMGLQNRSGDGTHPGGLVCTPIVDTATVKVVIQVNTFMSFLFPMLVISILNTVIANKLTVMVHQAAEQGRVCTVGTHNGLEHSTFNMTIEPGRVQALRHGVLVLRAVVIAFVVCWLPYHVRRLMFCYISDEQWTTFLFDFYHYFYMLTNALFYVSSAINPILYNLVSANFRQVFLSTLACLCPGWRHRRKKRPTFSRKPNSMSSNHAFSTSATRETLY

COc1cccc(OC)c1-c1cc(C(=O)N[C@H](C(=O)O)C2CCCCC2)nn1-c1ccc(F)cc1 [Compound 1]
EC50 (human APJ; read-out: functional EC50 at APJ, calcium mobilization): 21.5 ± 5 µM | displacement of 125I radiolabeled pyr-apelin-13 (human apelin receptor): 100% | mode of binding at APJ (human apelin receptor; radioligand displacement studies): competitive orthosteric ligand of APJ | EC50 (NTR2 [1]): 0.271 µM | Ki (NTR2 receptor): 0.622 µM

COc1cccc(OC)c1-c1cc(C(=O)N[C@H](C(=O)O)C2CCCCC2)n(-c2ccc(F)cc2)n1 [Compound 1a, (S)-2-Cyclohexyl-2-(3-(2,6-dimethoxyphenyl)-1-(4-fluorophenyl)-1H-pyrazole-5-carboxamido)acetic acid]
APJ agonist activity (human APJ; calcium mobilization): significantly reduce activity

COc1cccc(OC)c1-c1cc(C(=O)N[C@@H](C(=O)O)C2CCCCC2)nn1-c1ccc(F)cc1 [Compound 3, (R)-2-Cyclohexyl-2-(5-(2,6-dimethoxyphenyl)-1-(4-fluorophenyl)-1H-pyrazole-3-carboxamido)acetic acid]
APJ agonist activity (human APJ; calcium mobilization): significantly reduce activity

COC(=O)[C@@H](NC(=O)c1cc(-c2c(OC)cccc2OC)n(-c2ccc(F)cc2)n1)C1CCCCC1 [Compound 4, (S)-Methyl 2-cyclohexyl-2-(5-(2,6-dimethoxyphenyl)-1-(4-fluorophenyl)-1H-pyrazole-3-carboxamido)acetate]
APJ agonist activity (human APJ; calcium mobilization): did not possess activity

COc1cccc(OC)c1-c1cc(C(=O)NCC2CCCCC2)nn1-c1ccc(F)cc1 [Compound 5, N-(Cyclohexylmethyl)-5-(2,6-dimethoxyphenyl)-1-(4-fluorophenyl)-1H-pyrazole-3-carboxamide]
APJ agonist activity (human APJ; calcium mobilization): did not possess activity

COc1cccc(OC)c1-c1cc(C(=O)N[C@H](C(N)=O)C2CCCCC2)nn1-c1ccc(F)cc1 [Compound 6, (S)-N-(2-Amino-1-cyclohexyl-2-oxoethyl)-5-(2,6-dimethoxyphenyl)-1-(4-fluorophenyl)-1H-pyrazole-3-carboxamide]
APJ agonist activity (human APJ; calcium mobilization): devoid of activity

COc1cccc(OC)c1-c1cc(C(=O)N[C@H](C(=O)N(C)C)C2CCCCC2)nn1-c1ccc(F)cc1 [Compound 7, (S)-N-(1-Cyclohexyl-2-(dimethylamino)-2-oxoethyl)-5-(2,6-dimethoxyphenyl)-1-(4-fluorophenyl)-1H-pyrazole-3-carboxamide]
APJ agonist activity (human APJ; calcium mobilization): devoid of activity

COc1cccc(OC)c1-c1cc(C(=O)N[C@H](C(=O)NCc2ccccc2)C2CCCCC2)nn1-c1ccc(F)cc1 [Compound 8, (S)-N-(2-(Benzylamino)-1-cyclohexyl-2-oxoethyl)-5-(2,6-dimethoxyphenyl)-1-(4-fluorophenyl)-1H-pyrazole-3-carboxamide]
APJ agonist activity (human APJ; calcium mobilization): devoid of activity

COc1cccc(OC)c1-c1cc(C(=O)N[C@H](C(=O)NO)C2CCCCC2)nn1-c1ccc(F)cc1 [Compound 9, (S)-N-(1-Cyclohexyl-2-(hydroxyamino)-2-oxoethyl)-5-(2,6-dimethoxyphenyl)-1-(4-fluorophenyl)-1H-pyrazole-3-carboxamide]
APJ agonist activity (human APJ; calcium mobilization): not tolerated

COC(=O)CNC(=O)[C@@H](NC(=O)c1cc(-c2c(OC)cccc2OC)n(-c2ccc(F)cc2)n1)C1CCCCC1 [Compound 10, (S)-Methyl 2-(2-cyclohexyl-2-(5-(2,6-dimethoxyphenyl)-1-(4-fluorophenyl)-1H-pyrazole-3-carboxamido)acetamido)acetate]
APJ agonist activity (human APJ; calcium mobilization): inactive

COc1cccc(OC)c1-c1cc(C(=O)N[C@H](C(=O)NCC(=O)O)C2CCCCC2)nn1-c1ccc(F)cc1 [Compound 11, (S)-2-(2-Cyclohexyl-2-(5-(2,6-dimethoxyphenyl)-1-(4-fluorophenyl)-1H-pyrazole-3-carboxamido)acetamido)acetic acid]
APJ agonist activity (human APJ; calcium mobilization): inactive

O=C(N[C@H](C(=O)O)C1CCCCC1)c1cc(-c2c(O)cccc2O)n(-c2ccc(F)cc2)n1 [Compound 12, (S)-2-Cyclohexyl-2-(5-(2,6-dihydroxyphenyl)-1-(4-fluorophenyl)-1H-pyrazole-3-carboxamido)acetic acid]
APJ agonist activity (human APJ; calcium mobilization): complete loss of agonist potency

COc1cccc(O)c1-c1cc(C(=O)N[C@H](C(=O)O)C2CCCCC2)nn1-c1ccc(F)cc1 [Compound 13, 2-Cyclohexyl-2-(1-(4-fluorophenyl)-5-(2-hydroxy-6-methoxyphenyl)-1H-pyrazole-3-carboxamido)acetic acid]
APJ agonist activity (human APJ; calcium mobilization): loss of potency

Cc1cc(C(=O)N[C@H](C(=O)O)C2CCCCC2)nn1-c1ccc(F)cc1 [Compound 15, (S)-2-Cyclohexyl-2-(1-(4-fluorophenyl)-5-methyl-1H-pyrazole-3-carboxamido)acetic acid]
APJ agonist activity (human APJ; calcium mobilization): inactive

COc1cccc(OC)c1-c1cc(C(=O)N[C@@H](CCC(N)=O)C(=O)O)nn1-c1ccc(F)cc1 [Compound 16, (S)-5-Amino-2-(5-(2,6-dimethoxyphenyl)-1-(4-fluorophenyl)-1H-pyrazole-3-carboxamido)-5-oxopentanoic acid]
APJ agonist activity (human APJ; calcium mobilization): not tolerated

COc1cccc(OC)c1-c1cc(C(=O)N[C@@H](CCCCNC(=O)OC(C)(C)C)C(=O)O)nn1-c1ccc(F)cc1 [Compound 17, (S)-6-((Tert-butoxycarbonyl)amino)-2-(5-(2,6-dimethoxyphenyl)-1-(4-fluorophenyl)-1H-pyrazole-3-carboxamido)hexanoic acid]
APJ agonist activity (human APJ; calcium mobilization): not tolerated

COc1cccc(OC)c1-c1cc(C(=O)N[C@@H](CCCCN)C(=O)O)nn1-c1ccc(F)cc1 [Compound 18, (S)-6-Amino-2-(5-(2,6-dimethoxyphenyl)-1-(4-fluorophenyl)-1H-pyrazole-3-carboxamido)hexanoic acid trifluoroacetate]
APJ agonist activity (human APJ; calcium mobilization): not tolerated

COc1cccc(OC)c1-c1cc(C(=O)N[C@@H](CC(C)C)C(=O)O)nn1-c1ccc(F)cc1 [Compound 19, (S)-2-(5-(2,6-Dimethoxyphenyl)-1-(4-fluorophenyl)-1H-pyrazole-3-carboxamido)-4-methylpentanoic acid]
APJ agonist activity (human APJ; calcium mobilization): did not retain APJ potency

COc1cccc(OC)c1-c1cc(C(=O)N[C@@H](CC(=O)O)C2CCCCC2)nn1-c1ccc(F)cc1 [Compound 21, (S)-3-Cyclohexyl-3-(5-(2,6-dimethoxyphenyl)-1-(4-fluorophenyl)-1H-pyrazole-3-carboxamido)propanoic acid]
EC50 (human APJ): 9.9 ± 2.6 µM | Ki (human apelin receptor): 1.4 ± 0.2 µM | EC50 (NTR2 [2]): ~0.345 µM | NTR2 functional behaviour (NTR2 [2]): partial agonists at NTR2 | Emax (NTR2 [2]; read-out: NTR2 Emax): 57% | NTR1 activity as agonist or antagonist (NTR1): Neither compound had any significant NTR1 activity

COc1cccc(OC)c1-c1cc(C(=O)N[C@@H](CCC2CCCCC2)CC(=O)O)nn1-c1ccc(F)cc1 [Compound 22, (S)-5-Cyclohexyl-3-(5-(2,6-dimethoxyphenyl)-1-(4-fluorophenyl)-1H-pyrazole-3-carboxamido)pentanoic acid]
APJ agonist activity (human APJ; calcium mobilization): full agonist | NTR2 functional behaviour (NTR2 [2]): partial agonists at NTR2 | NTR1 activity as agonist or antagonist (NTR1): Neither compound had any significant NTR1 activity

CCCCc1nc(Cl)c(CO)n1Cc1ccc(-c2ccccc2-c2nn[nH]n2)cc1 [losartan, reference compound]
APJ agonist activity (human APJ; calcium mobilization): none of these analogs possessed agonist activity

CCCCC(=O)N(Cc1ccc(-c2ccccc2-c2nnn[nH]2)cc1)[C@H](C(=O)O)C(C)C [valsartan, reference compound]
APJ agonist activity (human APJ; calcium mobilization): none of these analogs possessed agonist activity

Source: article PMC4955518 (Bioorganic & medicinal chemistry, 2016)
